Experimental findings from patent publication US20260193272A1, “SELENIUM CONTAINING HETEROCYCLE COMPOUNDS AND USE THEREOF” (HELIOS HUAMING BIOPHARMA CO., LTD., priority 2022, published 2026) are described below.

For orientation: IC50 means the concentration needed to halve the response being measured.

Some results are limits rather than exact numbers.

T1 sequence (Q9UM07 whole entry): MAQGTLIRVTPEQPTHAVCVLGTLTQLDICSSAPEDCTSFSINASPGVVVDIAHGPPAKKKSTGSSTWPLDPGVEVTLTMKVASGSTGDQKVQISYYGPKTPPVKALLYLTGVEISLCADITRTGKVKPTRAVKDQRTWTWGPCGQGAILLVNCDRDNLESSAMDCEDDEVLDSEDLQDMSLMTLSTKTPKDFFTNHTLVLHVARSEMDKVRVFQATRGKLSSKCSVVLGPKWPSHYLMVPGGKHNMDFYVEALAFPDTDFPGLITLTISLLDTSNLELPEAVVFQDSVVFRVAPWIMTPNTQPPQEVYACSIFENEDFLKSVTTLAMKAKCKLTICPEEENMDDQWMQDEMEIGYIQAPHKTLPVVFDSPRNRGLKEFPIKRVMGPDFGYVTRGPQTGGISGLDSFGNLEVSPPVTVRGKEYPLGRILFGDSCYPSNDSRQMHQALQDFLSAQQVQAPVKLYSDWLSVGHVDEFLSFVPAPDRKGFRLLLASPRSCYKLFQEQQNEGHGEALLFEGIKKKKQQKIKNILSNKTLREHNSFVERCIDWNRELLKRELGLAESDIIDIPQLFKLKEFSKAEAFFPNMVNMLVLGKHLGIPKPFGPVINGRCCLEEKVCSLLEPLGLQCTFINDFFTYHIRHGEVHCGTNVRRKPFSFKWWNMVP

One test concerns the target T1, PAD4 enzyme (Homo sapiens, UniProt Q9UM07).
T1 construct: PAD4 enzyme was diluted to 30 nM in Assay Buffer
The experiment in a line: In-vitro measurement for enzymatic PAD4 citrullination inhibition activity (ammonia release). The test is classed as biochemical. To be noted: direct comparison of prior art and selenium containing compounds; read-out: IC50 for enzymatic PAD4 citrullination inhibition. As for the experimental part: Citrullination was detected via ammonia release based on published methodology (Nature Chemical Biology, 2015, 11: 189-191).
PAD4 enzyme was diluted to 30 nM in Assay Buffer (100 mM HEPES, 50 mM NaCl, 2 mM DTT, 0.6 mg/ml BSA, pH 8) and added to wells containing various concentrations of compound or DMSO vehicle (0.8% final) in a high-volume black 96-well plate (Greiner). Following a 60-min preincubation at 27° C., the reaction was initiated by the addition of substrate (3 mM BAEE in 100 mM HEPES, 50 mM NaCl, […] CaCl2, 2 mM DTT, pH 8). The reaction was stopped after 90 min by the addition of stop/detection buffer containing 50 mM EDTA, 2.6 mM o-phthalaldehyde and 2.6 mM DTT. Assays were incubated at 27° C. for 120 min before measuring fluorescence (λex 410/λem 476) on an Envision plate reader (PerkinElmer). After which IC50 values were calculated using GraphPad Prism 8.0.
Turning to `COc1cc(C(=O)N2C[C@H]3CC[C@@H]2[C@@H]3N)cc2nc(-c3cc4sc(C)cc4n3CC3CC3)n(C)c12` [Cpd-27, reference compound], the IC50 was 272 nM. Consider `COc1cc(C(=O)N2CCC[C@@H](N)C2)cc2nc(-c3cc4sc(C5CC5)nc4n3CC3CC3)n(C)c12` [Cpd-118, reference compound], for which the half-maximal inhibitory concentration (IC50) amounted to 66.8 nM. As for `COc1cc(C(=O)N2CCC[C@@H](N)C2)cc2nc(-c3cc4[se]c(C5CC5)nc4n3CC3CC3)n(C)c12` [HH-4], the IC50 came out at 22.4 nM.

The same test, now with this note: read-out: IC50 of inhibition enzymatic activity of PAD4 (Colorimetric assays, Nature Chemical Biology, 2015, 11: 189-191).
On to `CCc1nc2c(cc(-c3nc4cc(C(=O)N5C[C@H]6CC[C@@H]5[C@@H]6N)cc(OC)c4n3C)n2CC2CC2)[se]1` [HH-1], for which the IC50 is at most 50 nM.

On to `CCc1nc2c(cc(-c3nc4cc(C(=O)N5C[C@H](N)CC[C@@H]5C)cc(OC)c4n3C)n2CC2CC2)[se]1` [HH-2], for which the IC50 is at most 50 nM. Same read-out and setting: under `CCc1nc2c(cc(-c3nc4cc(C(=O)N5C[C@H](N)C[C@@H](F)C5)cc(OC)c4n3C)n2CC2CC2)[se]1` [HH-3] stands at most 50 nM. Regarding `COc1cc(C(=O)N2CCC[C@@H](N)C2)cc2nc(-c3cc4[se]c(C5CC5)nc4n3CC3CC3)n(C)c12` [HH-4], the 50% inhibitory concentration (IC50) is at most 50 nM. Take `COc1cc(C(=O)N2C[C@H](N)C[C@@H](F)C2)cc2nc(-c3cc4[se]c(C5CC5)nc4n3CC3CC3)n(C)c12` [HH-5]: the 50% inhibitory concentration (IC50) was at most 50 nM. The same measure, in the same setting: under `COc1cc(C(=O)N2C[C@H](N)CC[C@@H]2C)cc2nc(-c3cc4[se]c(C5CC5)nc4n3CC3CC3)n(C)c12` [HH-6] stands at most 50 nM. On the same count and under the same terms, under `COc1cc(C(=O)N2C[C@H]3CC[C@@H]2[C@@H]3N)cc2nc(-c3cc4[se]c(C5CC5)nc4n3CC3CC3)n(C)c12` [HH-7] stands at most 50 nM; under `COc1cc(C(=O)N2C[C@H](N)CC[C@@H]2C)cc2nc(-c3cc4[se]c(C)nc4n3CC3CC3)n(C)c12` [HH-8], at most 50 nM.

Regarding `COc1cc(C(=O)N2C[C@H]3CC[C@@H]2[C@@H]3N)cc2nc(-c3cc4[se]c(C)nc4n3CC3CC3)n(C)c12` [HH-9], the concentration for half-maximal inhibition (IC50) is at most 50 nM.

As to `COc1cc(C(=O)N2C[C@H](N)C[C@@H](F)C2)cc2nc(-c3cc4[se]c(C)nc4n3CC3CC3)n(C)c12` [HH-10], the half-maximal inhibitory concentration (IC50) was at most 50 nM. Same read-out and setting: under `COc1cc(C(=O)N2CC[C@@H](O)[C@@H](N)C2)cc2nc(-c3cc4[se]c(C)nc4n3CC3CC3)n(C)c12` [HH-11] stands 100 to 500 nM; under `COc1cc(C(=O)N2CCC[C@@H](N)C2)cc2nc(-c3cc4[se]c(C)nc4n3CC3CC3)n(C)c12` [HH-12], at most 50 nM; under `COc1cc(C(=O)N2C[C@H](N)CC(F)(F)C2)cc2nc(-c3cc4[se]c(C)nc4n3CC3CC3)n(C)c12` [HH-13], over 500 nM.

For `COc1cc(C(=O)N2CC[C@@H](F)[C@@H](N)C2)cc2nc(-c3cc4[se]c(C)nc4n3CC3CC3)n(C)c12` [HH-14], the IC50 fell in the range of 100 to 500 nM. Same read-out and setting: under `COc1cc(C(=O)N2C[C@H](N)CC[C@@H]2C)cc2nc(-c3cc4[se]c(C)nc4n3CC3CCC3)n(C)c12` [HH-15] stands at most 50 nM. On the same count and under the same terms, under `COc1cc(C(=O)N2C[C@H]3CC[C@@H]2[C@@H]3N)cc2nc(-c3cc4[se]c(C)nc4n3CC3CCC3)n(C)c12` [HH-16] stands at most 50 nM; under `COc1cc(C(=O)N2CCC[C@@H](N)C2)cc2nc(-c3cc4[se]c(C)nc4n3CC3CCC3)n(C)c12` [HH-17], at most 50 nM; under `COc1cc(C(=O)N2C[C@H](N)C[C@@H](F)C2)cc2nc(-c3cc4[se]c(C)nc4n3CC3CCC3)n(C)c12` [HH-18], at most 50 nM.

Take `CCn1c(-c2nc3cc(C(=O)N4C[C@H](N)CC[C@@H]4C)cc(OC)c3n2C)cc2[se]c(C)nc21` [HH-19]: the concentration for half-maximal inhibition (IC50) was in the range of 100 to 500 nM. Same read-out and setting: under `CCn1c(-c2nc3cc(C(=O)N4C[C@H]5CC[C@@H]4[C@@H]5N)cc(OC)c3n2C)cc2[se]c(C)nc21` [HH-20] stands 100 to 500 nM; under `CCn1c(-c2nc3cc(C(=O)N4C[C@H](N)C[C@@H](F)C4)cc(OC)c3n2C)cc2[se]c(C)nc21` [HH-21], 100 to 500 nM. Still for that read-out and setting: under `COc1cc(C(=O)N2C[C@H](N)CC[C@@H]2C)cc2nc(-c3cc4[se]c(C)nc4n3CC(C)(C)C)n(C)c12` [HH-22] stands 100 to 500 nM. Same read-out and setting: under `COc1cc(C(=O)N2C[C@H](N)CC[C@@H]2C)cc2nc(-c3cc4[se]c(C)nc4n3CC(F)(F)F)n(C)c12` [HH-23] stands 100 to 500 nM; under `COc1ccccc1Cn1c(-c2nc3cc(C(=O)N4C[C@H](N)CC[C@@H]4C)cc(OC)c3n2C)cc2[se]c(C)nc21` [HH-26], 100 to 500 nM. For the compound `COc1cccc(Cn2c(-c3nc4cc(C(=O)N5C[C@H](N)CC[C@@H]5C)cc(OC)c4n3C)cc3[se]c(C)nc32)c1` [HH-27], the concentration for half-maximal inhibition (IC50) fell in the range of 100 to 500 nM. Still for that read-out and setting: under `COc1cc(C(=O)N2C[C@H](N)CC[C@@H]2C)cc2nc(-c3cc4[se]c(C)nc4n3Cc3ccc(C(F)(F)F)cc3)n(C)c12` [HH-28] stands over 500 nM; under `COc1cc(C(=O)N2C[C@H](N)CC[C@@H]2C)cc2nc(-c3cc4[se]c(C)nc4n3Cc3ccncc3)n(C)c12` [HH-29], 100 to 500 nM; under `COc1cc(C(=O)N2C[C@H]3CC[C@@H]2[C@@H]3N)cc2nc(-c3cc4[se]c(C)nc4n3Cc3ccncc3)n(C)c12` [HH-30], 100 to 500 nM.

For the compound `COc1cc(C(=O)N2C[C@H](N)CC[C@@H]2C)cc2nc(-c3cc4[se]c(C)nc4n3Cc3ccccn3)n(C)c12` [HH-31], the IC50 lay within 100 to 500 nM. Turning to `COc1cc(C(=O)N2C[C@H](N)CC[C@@H]2C)cc2nc(-c3cc4[se]c(C)nc4n3Cc3ccoc3)n(C)c12` [HH-32], the half-inhibitory concentration (IC50) fell in the range of 100 to 500 nM. Same read-out and setting: under `COc1cc(C(=O)N2C[C@H](N)CC[C@@H]2C)cc2nc(-c3cc4[se]c(C)nc4n3Cc3ccsc3)n(C)c12` [HH-34] stands 50 to 100 nM. Same read-out and setting: under `COc1cc(C(=O)N2C[C@H](N)CC[C@@H]2C)cc2nc(-c3cc4[se]c(C5CCNCC5)nc4n3CC3CC3)n(C)c12` [HH-35] stands 50 to 100 nM; under `COc1cc(C(=O)N2C[C@H](N)C[C@@H](F)C2)cc2nc(-c3cc4[se]c(C5CCNCC5)nc4n3CC3CC3)n(C)c12` [HH-36], 100 to 500 nM; under `COc1cc(C(=O)N2C[C@H]3CC[C@@H]2[C@@H]3N)cc2nc(-c3cc4[se]c(C5CCNCC5)nc4n3CC3CC3)n(C)c12` [HH-37], 100 to 500 nM. In the case of `COc1ccccc1-c1nc2c(cc(-c3nc4cc(C(=O)N5C[C@H](N)CC[C@@H]5C)cc(OC)c4n3C)n2CC2CC2)[se]1` [HH-38], the IC50 fell in the range of 100 to 500 nM.

Regarding `COc1ccccc1-c1nc2c(cc(-c3nc4cc(C(=O)N5C[C@H]6CC[C@@H]5[C@@H]6N)cc(OC)c4n3C)n2CC2CC2)[se]1` [HH-39], the IC50 was over 500 nM. The same measure, in the same setting: under `COc1ccc(-c2nc3c(cc(-c4nc5cc(C(=O)N6C[C@H](N)C[C@@H](F)C6)cc(OC)c5n4C)n3CC3CC3)[se]2)cc1` [HH-40] stands 100 to 500 nM; under `COc1cc(C(=O)N2C[C@H](N)CC[C@@H]2C)cc2nc(-c3cc4[se]c(-c5ccncc5)nc4n3CC3CC3)n(C)c12` [HH-41], 100 to 500 nM; under `COc1cc(C(=O)N2C[C@H](N)C[C@@H](F)C2)cc2nc(-c3cc4[se]c(-c5ccncc5)nc4n3CC3CC3)n(C)c12` [HH-42], 100 to 500 nM. `COc1cc(C(=O)N2C[C@H](N)CC[C@@H]2C)cc2nc(-c3cc4[se]c(-c5ccccn5)nc4n3CC3CC3)n(C)c12` [HH-43]: the 50% inhibitory concentration (IC50) was in the range of 100 to 500 nM. The same measure, in the same setting: under `COc1cc(C(=O)N2C[C@H]3CC[C@@H]2[C@@H]3N)cc2nc(-c3cc4[se]c(-c5ccccn5)nc4n3CC3CC3)n(C)c12` [HH-44] stands 100 to 500 nM. Still for that read-out and setting: under `COc1cc(C(=O)N2C[C@H](N)CC[C@@H]2C)cc2nc(-c3cc4[se]c(-c5ccc(C)cc5)nc4n3CC3CC3)n(C)c12` [HH-45] stands over 500 nM.
